The record followed here is patent publication US20230277553A1, “THERAPEUTIC COMPOSITION OF CURE-PRO COMPOUNDS FOR TARGETED DEGRADATION OF BET DOMAIN PROTEINS, AND METHODS OF MAKING AND USAGE” (CORNELL UNIVERSITY, priority 2020, published 2023).

Entries after “also recorded” stand apart in the source; their conditions may differ.

One test concerns MV-4-11 cells. The test is described as follows: CellTiter-Glo cell viability, MV-4-11 cells. In kind it is cell-based. The method, then: CellTiter-Glo® 2.0 Cell Viability Assay (Promega) was carried out following the manufacturer's recommendations. Cells were seeded at a density of 1000 cells/well in a white 96 well plates (Corning, #3917) in a total volume of 100 μl with respective monomers, combinations of BRD ligands together with E3 ligase ligands or vehicle control treatment. After a 72 h incubation, 100 ul of the CellTiter-Glo® substrate was added per well and luminescence was read on a Spectramax M5 (Molecular Devices). Dose-response curves were generated using Graphpad Prism software.
MV-4-11 cells (5×104) were treated for 24 hours with the sample compounds solubilized in DMSO. The compounds were added at 1 nM-100 μM each. Cellular viability was determined using the CellTiter-Glo® Luminescent Cell Viability Assay (Promega) described above. FIGS. 19-22 depict the CURE-PRO-mediated loss of cellular viability for BRD monomers (JQ1 derivatives comprising of catechol linkers), and CRBN ligand, 8049 (pomalidomide derivatives comprising boronic acid linkers) combined in a 1:1 ratio.
MV-4-11 cells (1×104) were treated for 72 hours with the compounds solubilized in DMSO. Compounds were added at 10 nM-100 μM each. Cellular viability was determined using the CellTiter-Glo® Luminescent Cell Viability Assay (Promega) described above. FIGS. 47-54 depict the CURE-PRO-mediated loss of cellular viability for BRD monomers (JQ1 derivatives comprising of boronic acid linkers), and CRBN ligands, 8046, 8047 and 8066 (pomalidomide derivatives comprising diol linkers) combined in a 1:1 ratio.
(In general: In ATP-based viability assays light output follows the ATP content of the culture.)

For another test, the target named is BRD4 (Homo sapiens, UniProt O60885). Briefly: CURE-PRO-mediated BRD4 degradation, Western blot, HeLa cells. It counts as cell-based. The arrangement: endogenous in cells; host or cells: HeLa. Particulars: 24 h, Western blot. In outline: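 HeLa cells treated 24 h with compounds in DMSO (1-10 μM, 10 μM or 100 μM each; paired monomers combined 1:1), optional 15-min pretreatment with pomalidomide, VHL298, Nutlin3a (10 μM) or MG-132/carfilzomib (1 μM). RIPA lysates, 10-20 μg protein immunoblotted for BRD4 with β-actin, ECL detection.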
Background: In western blotting, separated proteins are transferred to a membrane and probed.

`CCNC(=O)C[C@@H]1N=C(c2ccc(Cl)cc2)c2cc(OCCCCC(=O)Nc3cccc(B(O)O)c3)ccc2-n2c(C)nnc21` [BRD-E20, (3-(5-(((4S)-6-(4-chlorophenyl)-4-(2-(ethylamino)-2-oxoethyl)-1-methyl-4H-benzo[f][1,2,4]triazolo[4,3-a][1,4]diazepin-8-yl)oxy)pentanamido)phenyl)boronic acid]: the “Loss of cellular viability / toxicity, cotreated with cereblon ligands 8046, 8047 and 8066 vs monomers alone” value with MV-4-11 cells (MV-4-11, 72 hours, 1:1, 10 nM-100 μM each) was “reduced viability; also recorded: increased toxicity”. For the same molecule, the “BRD4 degradation, co-treatment with CRBN ligand 8046” value at BRD4 (1:1 with 8046, 10 μM each) is “causes degradation of BRD4; also recorded: Degradation is noted”. Besides, the “BRD4 degradation, co-treatment with CRBN ligand 8066” value at BRD4 (1:1 with 8066, 10 μM each (BRD-E10: 10 and 100 μM)) is “causes degradation of BRD4; also recorded: Degradation is noted”.

As to `CCNC(=O)C[C@@H]1N=C(c2ccc(Cl)cc2)c2cc(OCCNC(=O)c3cccc(O)c3O)ccc2-n2c(C)nnc21` [BRD-N25], the “Loss of cellular viability / toxicity, co-dosed with CRBN ligand 8049” value with MV-4-11 cells (MV-4-11, 24 hours, 1:1 with 8049, 1 nM-100 μM each) is “concentration-dependent loss in cellular viability; also recorded: increased toxicity”.

With `CCNC(=O)C[C@@H]1N=C(c2ccc(Cl)cc2)c2cc(OCCOCCNC(=O)c3cccc(O)c3O)ccc2-n2c(C)nnc21` [BRD-N39, N-(2-(2-(((4S)-6-(4-chlorophenyl)-4-(2-(ethylamino)-2-oxoethyl)-1-methyl-4H-benzo[f][1,2,4]triazolo[4,3-a][1,4]diazepin-8-yl)oxy)ethoxy)ethyl)-2,3-dihydroxybenzamide], on BRD4 (1:1 with 8048, 1-10 μM each), the “BRD4 degradation, co-treatment with CRBN ligand 8048” value is “causes degradation of BRD4; also recorded: Degradation is noted”. Moreover, the “BRD4 degradation, co-treatment with CRBN ligand 8049” value on BRD4 (1:1 with 8049, 1-10 μM each) is reported as “no evidence of BRD4 degradation”. The “BRD4 degradation, BRD ligand alone” value at BRD4 (BRD monomer alone) is recorded as “no degradation of BRD4”.
